Test results: ChEMBL document CHEMBL4257522, “Synthesis and preliminary anti-inflammatory and anti-bacterial evaluation of some diflunisal aza-analogs” (Medchemcomm, 2018)
Calls of active or inactive are those of the source. The rule behind the calls is not given here.

What was measured:
Streptococcus pyogenes [1] = test: Potentiation of erythromycin-induced antibacterial activity against Streptococcus pyogenes ATCC 14289 assessed as minimum modulatory concentration up to 32 uM measured after 16 hrs in presence of MIC/4 erythromycin; type: functional; settings: ATCC 14289, 16 h, read-out: MEC
Enterococcus faecium [2] = test: Potentiation of methicillin-induced antibacterial activity against Enterococcus faecium ATCC 700221 assessed as minimum modulatory concentration up to 32 uM measured after 16 hrs in presence of MIC/4 methicillin; type: functional; settings: ATCC 700221, 16 h, read-out: MEC
Streptococcus pyogenes [3] = test: Potentiation of methicillin-induced antibacterial activity against Streptococcus pyogenes ATCC 14289 assessed as minimum modulatory concentration up to 32 uM measured after 16 hrs in presence of MIC/4 methicillin; type: functional; settings: ATCC 14289, 16 h, read-out: MEC
Staphylococcus aureus [4] = test: Potentiation of geneticin-induced antibacterial activity against Staphylococcus aureus ATCC 33592 assessed as minimum modulatory concentration up to 32 uM measured after 16 hrs in presence of MIC/4 geneticin; type: functional; settings: ATCC 33592, 16 h, read-out: MEC
Escherichia coli [5] = test: Potentiation of tetracycline-induced antibacterial activity against Escherichia coli ATCC 43894 assessed as minimum modulatory concentration up to 32 uM measured after 16 hrs in presence of MIC/4 tetracycline; type: functional; settings: ATCC 43894, 16 h, read-out: MEC
Klebsiella pneumoniae [6] = test: Toxicity in Klebsiella pneumoniae ATCC 13883 up to 32 uM measured after 16 hrs; type: organism-based
Staphylococcus aureus [7] = test: Potentiation of ciprofloxacin-induced antibacterial activity against Staphylococcus aureus ATCC 33592 assessed as minimum modulatory concentration up to 32 uM measured after 16 hrs in presence of MIC/4 ciprofloxacin; type: functional; settings: ATCC 33592, 16 h, read-out: MEC
Staphylococcus aureus [8] = test: Toxicity in Staphylococcus aureus ATCC 33592 up to 32 uM measured after 16 hrs; type: organism-based
Streptococcus pyogenes [9] = test: Potentiation of geneticin-induced antibacterial activity against Streptococcus pyogenes ATCC 14289 assessed as minimum modulatory concentration up to 32 uM measured after 16 hrs in presence of MIC/4 geneticin; type: functional; settings: ATCC 14289, 16 h, read-out: MEC
Streptococcus pyogenes [10] = test: Toxicity in Streptococcus pyogenes ATCC 14289 up to 32 uM measured after 16 hrs; type: organism-based
Staphylococcus aureus [11] = test: Potentiation of methicillin-induced antibacterial activity against Staphylococcus aureus ATCC 33592 assessed as minimum modulatory concentration up to 32 uM measured after 16 hrs in presence of MIC/4 methicillin; type: functional; settings: ATCC 33592, 16 h, read-out: MEC
Escherichia coli [12] = test: Potentiation of geneticin-induced antibacterial activity against Escherichia coli ATCC 43894 assessed as minimum modulatory concentration up to 32 uM measured after 16 hrs in presence of MIC/4 geneticin; type: functional; settings: ATCC 43894, 16 h, read-out: MEC
Escherichia coli [13] = test: Toxicity in Escherichia coli ATCC 43894 up to 32 uM measured after 16 hrs; type: organism-based
Escherichia coli [14] = test: Potentiation of erythromycin-induced antibacterial activity against Escherichia coli ATCC 43894 assessed as minimum modulatory concentration up to 32 uM measured after 16 hrs in presence of MIC/4 erythromycin; type: functional; settings: ATCC 43894, 16 h, read-out: MEC
Macrophage cell line [15] = test: Induction of IL-1beta production in human PBMC-differentiated macrophages after 24 hrs by ELISA; type: cell-based
Macrophage cell line [16] = test: Induction of IL-8 production in human PBMC-differentiated macrophages after 24 hrs by ELISA; type: cell-based
Staphylococcus aureus [17] = test: Potentiation of tetracycline-induced antibacterial activity against Staphylococcus aureus ATCC 33592 assessed as minimum modulatory concentration up to 32 uM measured after 16 hrs in presence of MIC/4 tetracycline; type: functional; settings: ATCC 33592, 16 h, read-out: MEC
Macrophage cell line [18] = test: Induction of TNFalpha production in human PBMC-differentiated macrophages after 24 hrs by ELISA; type: cell-based
Klebsiella pneumoniae [19] = test: Potentiation of methicillin-induced antibacterial activity against Klebsiella pneumoniae ATCC 13883 assessed as minimum modulatory concentration up to 32 uM measured after 16 hrs in presence of MIC/4 methicillin; type: functional; settings: ATCC 13883, 16 h, read-out: MEC
Staphylococcus aureus [20] = test: Potentiation of erythromycin-induced antibacterial activity against Staphylococcus aureus ATCC 33592 assessed as minimum modulatory concentration up to 32 uM measured after 16 hrs in presence of MIC/4 erythromycin; type: functional; settings: ATCC 33592, 16 h, read-out: MEC
Macrophage cell line [21] = test: Antiinflammatory activity in human PBMC-differentiated macrophages assessed as inhibition of LPS-induced IL-8 production at 0.01 to 10 uM measured after 24 hrs by ELISA; type: functional, cell-based
Enterococcus faecium [22] = test: Potentiation of erythromycin-induced antibacterial activity against Enterococcus faecium ATCC 700221 assessed as minimum modulatory concentration up to 32 uM measured after 16 hrs in presence of MIC/4 erythromycin; type: functional; settings: ATCC 700221, 16 h, read-out: MEC
Klebsiella pneumoniae [23] = test: Potentiation of tetracycline-induced antibacterial activity against Klebsiella pneumoniae ATCC 13883 assessed as minimum modulatory concentration up to 32 uM measured after 16 hrs in presence of MIC/4 tetracycline; type: functional; settings: ATCC 13883, 16 h, read-out: MEC
Macrophage cell line [24] = test: Antiinflammatory activity in human PBMC-differentiated macrophages assessed as inhibition of LPS-induced prostaglandin production at 0.01 to 10 uM measured after 24 hrs by ELISA; type: functional, cell-based
Pseudomonas aeruginosa [25] = test: Potentiation of geneticin-induced antibacterial activity against Pseudomonas aeruginosa ATCC BAA-2108 assessed as minimum modulatory concentration up to 32 uM measured after 16 hrs in presence of MIC/4 geneticin; type: functional; settings: ATCC BAA-2108, 16 h, read-out: MEC
Klebsiella pneumoniae [26] = test: Potentiation of ciprofloxacin-induced antibacterial activity against Klebsiella pneumoniae ATCC 13883 assessed as minimum modulatory concentration up to 32 uM measured after 16 hrs in presence of MIC/4 ciprofloxacin; type: functional; settings: ATCC 13883, 16 h, read-out: MEC
Macrophage cell line [27] = test: Cytotoxicity against human PBMC-differentiated macrophages treated for 24 hrs followed by compound washout and measured after 48 hrs by MTT assay; type: cell-based
Pseudomonas aeruginosa [28] = test: Potentiation of erythromycin-induced antibacterial activity against Pseudomonas aeruginosa ATCC BAA-2108 assessed as minimum modulatory concentration up to 32 uM measured after 16 hrs in presence of MIC/4 erythromycin; type: functional; settings: ATCC BAA-2108, 16 h, read-out: MEC
Macrophage cell line [29] = test: Induction of prostaglandin production in human PBMC-differentiated macrophages after 24 hrs by ELISA; type: cell-based
Enterococcus faecium [30] = test: Potentiation of geneticin-induced antibacterial activity against Enterococcus faecium ATCC 700221 assessed as minimum modulatory concentration up to 32 uM measured after 16 hrs in presence of MIC/4 geneticin; type: functional; settings: ATCC 700221, 16 h, read-out: MEC
Enterococcus faecium [31] = test: Toxicity in Enterococcus faecium ATCC 700221 up to 32 uM measured after 16 hrs; type: organism-based; settings: in vitro
Klebsiella pneumoniae [32] = test: Potentiation of geneticin-induced antibacterial activity against Klebsiella pneumoniae ATCC 13883 assessed as minimum modulatory concentration up to 32 uM measured after 16 hrs in presence of MIC/4 geneticin; type: functional; settings: ATCC 13883, 16 h, read-out: MEC
Enterococcus faecium [33] = test: Potentiation of tetracycline-induced antibacterial activity against Enterococcus faecium ATCC 700221 assessed as minimum modulatory concentration up to 32 uM measured after 16 hrs in presence of MIC/4 tetracycline; type: functional; settings: ATCC 700221, 16 h, read-out: MEC
Klebsiella pneumoniae [34] = test: Potentiation of erythromycin-induced antibacterial activity against Klebsiella pneumoniae ATCC 13883 assessed as minimum modulatory concentration up to 32 uM measured after 16 hrs in presence of MIC/4 erythromycin; type: functional; settings: ATCC 13883, 16 h, read-out: MEC

SMILES	minimal effective concentration (Streptococcus pyogenes [1]) [µM]	minimal effective concentration (Enterococcus faecium [2]) [µM]	minimal effective concentration (Streptococcus pyogenes [3]) [µM]	minimal effective concentration (Staphylococcus aureus [4]) [µM]	minimal effective concentration (Escherichia coli [5]) [µM]	Activity (Klebsiella pneumoniae [6])	minimal effective concentration (Staphylococcus aureus [7]) [µM]	Activity (Staphylococcus aureus [8])	minimal effective concentration (Streptococcus pyogenes [9]) [µM]	Activity (Streptococcus pyogenes [10])	minimal effective concentration (Staphylococcus aureus [11]) [µM]	minimal effective concentration (Escherichia coli [12]) [µM]	Activity (Escherichia coli [13])	minimal effective concentration (Escherichia coli [14]) [µM]	Activity (Macrophage cell line [15])	Activity (Macrophage cell line [16])	minimal effective concentration (Staphylococcus aureus [17]) [µM]	Activity (Macrophage cell line [18])	minimal effective concentration (Klebsiella pneumoniae [19]) [µM]	minimal effective concentration (Staphylococcus aureus [20]) [µM]	also measured
Cc1cc(C(=O)O)c(O)c(Cc2ccccc2)n1	> 32	> 32	> 32	> 32	> 32	Non-Toxic	> 32	Non-Toxic	> 32	Non-Toxic	> 32	> 32	Non-Toxic	> 32	Non-Toxic	Non-Toxic	> 32	Non-Toxic	> 32	> 32	inhibition (Macrophage cell line [21]): inactive; minimal effective concentration (Enterococcus faecium [22]): > 32 µM; minimal effective concentration (Klebsiella pneumoniae [23]): > 32 µM; inhibition (Macrophage cell line [24]): inactive; minimal effective concentration (Pseudomonas aeruginosa [25]): > 32 µM; minimal effective concentration (Klebsiella pneumoniae [26]): > 32 µM; IC50 (Macrophage cell line [27]): > 100 µM; minimal effective concentration (Pseudomonas aeruginosa [28]): > 32 µM; Activity (Macrophage cell line [29]): Non-Toxic; minimal effective concentration (Enterococcus faecium [30]): > 32 µM; Activity (Enterococcus faecium [31]): Non-Toxic; minimal effective concentration (Klebsiella pneumoniae [32]): > 32 µM; minimal effective concentration (Enterococcus faecium [33]): > 32 µM; minimal effective concentration (Klebsiella pneumoniae [34]): > 32 µM
O=C(O)c1cc(-c2ccccc2)ncc1O	> 32	> 32	16	> 32	> 32	Non-Toxic	16	Non-Toxic	16	Non-Toxic	16	> 32	Non-Toxic	> 32	Non-Toxic	Non-Toxic	> 32	Non-Toxic	> 32	> 32	inhibition (Macrophage cell line [21]): inactive; minimal effective concentration (Enterococcus faecium [22]): > 32 µM; minimal effective concentration (Klebsiella pneumoniae [23]): > 32 µM; inhibition (Macrophage cell line [24]): inactive; minimal effective concentration (Pseudomonas aeruginosa [25]): > 32 µM; minimal effective concentration (Klebsiella pneumoniae [26]): > 32 µM; IC50 (Macrophage cell line [27]): 84.5 µM; minimal effective concentration (Pseudomonas aeruginosa [28]): > 32 µM; Activity (Macrophage cell line [29]): Non-Toxic; minimal effective concentration (Enterococcus faecium [30]): > 32 µM; Activity (Enterococcus faecium [31]): Non-Toxic; minimal effective concentration (Klebsiella pneumoniae [32]): > 32 µM; minimal effective concentration (Enterococcus faecium [33]): > 32 µM; minimal effective concentration (Klebsiella pneumoniae [34]): > 32 µM
